Results on 9 molecules are retold here after patent US5302610A, “Renal-selective biphenylmethyl imidazole angiotensin II antagonists for treatment of hypertension” (G. D. Searle & Co., priority 1991, dated 1994).

The conditions of data set [1]: in vivo; cited from earlier work.
A further data set relates to angiotensin II. The conditions noted are these: binding experiments, functional assays and in vivo tests; cited from earlier work.
In the next data set the test system is guanylate cyclase. Conditions: cited from earlier work.
In data set [2] the test system is response to angiotensin II (urinary sodium excretion). The data set is described as follows: Assay E: Urinary Sodium Excretion, acute administration with AII infusion. Type of data set: in vivo, male Sprague-Dawley rats, conscious. The conditions noted are these: for Urinary Sodium Excretion: means±SE. As to the method: (§1) antagonist compound (Ex. #5) and a glutamyl conjugate (Ex. #81) of the Ex. #5 AII antagonist compound to determine the renal selectivity of the conjugate. Male Sprague-Dawley rats (300-350 g body weight) had catheters implanted into the femoral artery and vein under chloral hydrate anesthesia (400 mg/kg, i.p.). After 2 to 4 days of recovery, on the experimental day, a urinary bladder catheter was implanted under methohexital anesthesia (50 mg/kg, i.p.). Rats were placed in a restraint device to allow for urine collection and mean arterial pressure measurements. After 1-2 hours of recovery, in conscious rats, an isotonic saline infusion (50 μl/min) was started and continued for the duration of the experiment. After one hour equilibration to the saline infusion, a 20 minute control urine and mean arterial pressure collection were obtained. Then angiotensin II was infused at 20 ng/min for 25 minutes. After 5 minutes of angiotensin II infusion, a 20 minute experimental collection was made. Finally, 5 minutes after the end of angiotensin II infusion, a 20 minute recovery collection was obtained. In separate groups of rats, vehicle (0.3 ml isotonic saline, i.v. bolus), Example #5 angiotensin II antagonist compound (100 mg/kg, i.v. bolus), or Example #81 conjugate (100 mg/kg, i.v. bolus) was administered 1-2 minutes prior to onset of angiotensin II infusion. […] Results are shown in Tables XIII and XIV and also in FIGS. 3 and 4. Data are presented as means±SE. Repeated measures analysis of variance was used for main effects and interactions and Tukey's HSD test was used for pairwise comparisons among means. Statistical significance was defined as p<0.05.

Data set [3] has as its system response to angiotensin II (mean arterial pressure). The data set is described as follows: Assay E: Mean Arterial Pressure, acute administration with AII infusion. Type of data set: in vivo, male Sprague-Dawley rats, conscious. Conditions: for Mean Arterial Pressure: n = 6, means±SE. As to the method:
as §1

Data set [4] relates to non-renal, vascular angiotensin II receptors. The data set can be described thus: Assay D: AII Pressor Response during chronic infusion of conjugate. Type of data set: in vivo, spontaneously hypertensive rats (SHR). The conditions noted are these: for AII Pressor Response (MAP): AII 100 ng/kg bolus. As to the method: (§2) This in vivo experiment was conducted to characterize the effects of the Example 81 conjugate on spontaneously hypertensive rats (SHR) by acute administration i.v. and by chronic administration i.v. The Example 81 compound or saline vehicle was infused continuously for four days in SHR. Mean arterial pressure was measured (Gould Chart Recorder, model 3800; Statham P23Db pressure transducer) via an indwelling femoral artery catheter between 10:00 A. M. and 2:00 P. M. each day. The Example 81 conjugate (10 mg/hr) or saline was infused via a jugular vein catheter with a Harvard infusion pump. […] A test was conducted to determine whether the Example 81 conjugate would antagonize non-renal, vascular angiotensin II receptors. In this test AII was administered by bolus injection (100 ng/kg) to the SHR rats (described above) on the control day and on days 1, 2 and 3 during conjugate infusion.

The test system of data set [5] is spontaneously hypertensive rats (SHR). The data set is described as follows: Assay D: Mean Arterial Pressure, chronic infusion of conjugate. It is filed as in vivo. How it is done:
as §2

In data set [6] the test system is γ-glutamyl transpeptidase. The conditions noted are these: dogs; cited from earlier work.
The next data set deals with angiotensin II receptors. Conditions: cited from earlier work.
A further data set has as its system dopa-decarboxylase. Conditions: in vivo; cited from earlier work.
The subject of another data set is kidney. Conditions: normal subjects; cited from earlier work.
[7] abbreviates: 100 mg/kg i.v. bolus, Recovery after AII infusion.
[8] abbreviates: 100 mg/kg i.v. bolus, during AII infusion 20 ng/min, * in table.
Setting [9] is: 100 mg/kg, i.v. bolus, AII 20 ng/min.
Setting [10] is: Control day (baseline before infusion).

In the case of `CCCCc1ccc(NNC(=O)CCC(NC(C)=O)C(=O)O)nc1` (stereo not drawn), the renal vasodilation entry in data set [1] is recorded as “provided selective renal vasodilation”.
Consider `CCCCc1nc(Cl)c(CC(=O)O)n1Cc1ccccc1[N+](=O)[O-]` [2-butyl-4-choloro-1-(2-nitrobenzyl)imidazole-5-acetic acid], for which the “angiotensin II antagonist activity” value with angiotensin II is listed as “specific competitive angiotensin II antagonist activity”.
Turning to `CCCCc1ccc(NN)nc1` [2-hydrazino-5-n-butylpyridine], the guanylate cyclase activity entry in the data set on guanylate cyclase is “stimulates guanylate cyclase activity”.
Consider `CCCCc1nc(Cl)c(CC(=O)O)n1Cc1ccccc1Cl` [2-n-butyl-4-chloro-1-(2-chlorobenzyl)imidazole-5-acetic acid], for which, in the data set with angiotensin II, the “angiotensin II antagonist activity” value is reported as “specific competitive angiotensin II antagonist activity”.
Turning to `CCCCc1nc(Cl)c(CO)n1Cc1ccc(-c2ccccc2C(=O)NNC(=O)CC[C@H](NC(C)=O)C(=O)O)cc1` [Example 81, N-acetyl-L-glutamic acid, 5-[[4'-[2-butyl-4-chloro-5-(hydroxymethyl)-1H-imidazol-1-ylmethyl][1,1'-biphenyl]-2-yl]carbonyl]hydrazide], the “Urinary Sodium Excretion” value in data set [2] (setting [7]) is 1.8 ± 0.4 μEq/min/100 g BW; in [2] (setting [8]), 4.1 ± 1.3 μEq/min/100 g BW; in [2] (Control period (before dosing)), 1.3 ± 0.3 μEq/min/100 g BW. Besides, the “antinatriuretic (urinary sodium excretion) response to angiotensin II” value in data set [2] (setting [9]) is “prevented the antinatriuretic response to angiotensin II”. Besides, the “urinary sodium excretion during angiotensin II infusion” value in [2] (setting [9]) is “actually increased urinary sodium excretion”. Also, the “Mean Arterial Pressure” value is listed as 121 ± 4 mm Hg in data set [3] (setting [7]), 151 ± 4 mm Hg in [3] (setting [8]) and 117 ± 3 mm Hg in data set [3] (Control period (before dosing)). The “mean arterial pressure response to angiotensin II” value in data set [3] (setting [9]) is given as “had no effect on the mean arterial pressure response”. In addition, in data set [4] (10 mg/hr i.v. infusion, days 1, 2 and 3), the “systemic angiotensin II receptor antagonism” value is “No evidence for systemic angiotensin II receptor antagonism was observed”. The “AII Pressor Response (MAP)” value turned out to be 45 mm Hg in data set [4] (10 mg/hr i.v. infusion, day 1); 65 mm Hg in [4] (10 mg/hr i.v. infusion, day 2); 60 mm Hg in [4] (10 mg/hr i.v. infusion, day 3); 44 mm Hg in [4] (setting [10]). Moreover, the “mean arterial pressure as compared to saline vehicle control” value in data set [5] (10 mg/hr i.v. infusion, SHR) is reported as “lowered mean arterial pressure as compared to the saline vehicle control”. Further, the “Mean Arterial Pressure (MAP)” value in data set [5] (10 mg/hr i.v. infusion, day 1) was found to be 148 mm Hg; in data set [5] (10 mg/hr i.v. infusion, day 2) it was 135 mm Hg; in [5] (10 mg/hr i.v. infusion, day 3), 140 mm Hg; in [5] (setting [10]), 163 mm Hg.
For `N[C@@H](CCC(=O)NCCc1ccc(O)c(O)c1)C(=O)O` [L-γ-glutamyl amide of dopamine], in [6], the “generation of dopamine in vivo” value is recorded as “generate dopamine in vivo by specific enzymatic cleavage by γ-glutamyl transpeptidase”.
On to `CNCC(=O)N[C@@H](CCCN=C(N)N)C(=O)N[C@H](C(=O)N[C@@H](Cc1ccc(O)cc1)C(=O)N[C@H](C(=O)N[C@@H](Cc1cnc[nH]1)C(=O)N1CCC[C@H]1C(=O)N[C@@H](C)C(=O)O)C(C)C)C(C)C` [Saralasin], for which the residual agonist activity result in the data set with angiotensin II receptors is recorded as “have a significant residual agonist activity”.
Take `N[C@@H](CCC(=O)N[C@@H](Cc1ccc(O)c(O)c1)C(=O)O)C(=O)O` [gludopa, γ-L-glutamyl-L-dopa]: the “blockade of activity by the dopa-decarboxylase inhibitor carbidopa” value in the data set on dopa-decarboxylase is “activity can be blocked by the dopa-decarboxylase inhibitor carbidopa”. In the data set with kidney, the kidney specificity result was “relatively specific for the kidney”; the “renal blood flow, glomerular filtration and urinary sodium excretion” value was “increase renal blood flow, glomerular filtration and urinary sodium excretion in normal subjects”.
Turning to “angiotensin II: an octapeptide which is the primary active species of this system (DRVYIHPF; Angiotensin-2; UniProt P01019 25-32, looked up) [reference compound]”, in [2] (AII 20 ng/min for 25 minutes), the “effect of angiotensin II infusion on urinary sodium excretion” value is given as “decreased urinary sodium excretion”. Besides, the “effect of angiotensin II infusion on mean arterial pressure” value in data set [3] (AII 20 ng/min for 25 minutes) is on record as “increased mean arterial pressure”.
